Measured values as given in article PMC9947975, “Design, Synthesis, and Biological Evaluation Studies of Novel Naphthalene-Chalcone Hybrids As Antimicrobial, Anticandidal, Anticancer, and VEGFR-2 Inhibitors” (ACS Omega, 2023).
≈ marks a conversion by molar mass, not a printed value.

Key:
B. subtilis (ATCC 6051) = assay: Antibacterial activity, MIC50 by resazurin fluorometric measurement; type: cell-based; settings: Bacillus subtilis, ATCC6051; means of triplicate assays
Method: (§1) Obtained compounds (2a–2j) were evaluated for antibacterial activity against Escherichia coli (E. coli) (ATCC 25922), Pseudomonas aeruginosa (P. aeruginosa) (ATCC 27853), […] (E. faecalis) (ATCC 2942), Bacillus subtilis (B. subtilis) (ATCC 6051), Staphylococcus aureus (S. aureus) (ATCC 29213), and Staphylococcus epidermidis (S. epidermidis) (ATCC 12228). MIC50 values were determined via fluorometric measurements, using resazurin solution.[13] Azithromycin was used as a standard drug in the antibacterial activity test.
(§2) The antimicrobial activity of obtained derivatives (2a–2j) was screened on six bacterial and three fungal strains according to the standard procedure of CLSI[20] as described in the previous study.[21] The antibacterial activities of the obtained compounds were screened against B. subtilis (ATCC 6051), E. coli (ATCC 25922), E. faecalis (ATCC 2942), P. aeruginosa (ATCC 27853), S. aureus (ATCC 29213), and S. epidermidis (ATCC 12228). The obtained compounds were evaluated for anticandidal activity against C. albicans (ATCC 24433), C. krusei (ATCC 6258), and C. parapsilopsis (ATCC 22019). For antibacterial activity, azithromycin was utilized as a reference drug, whereas voriconazole and fluconazole were used for anticandidal activity.

E. coli (ATCC 25922) = assay: as above; type: cell-based; settings: Escherichia coli, ATCC25922; means of triplicate assays
Method: as §1, §2

[1] = test system: P. aeruginosa (ATCC 27853); assay: as above; type: cell-based; settings: Pseudomonas aeruginosa, ATCC27853; means of triplicate assays
Method: as §1, §2

E. faecalis (ATCC 2942) = assay: as above; type: cell-based, Enterococcus faecalis; settings: for MIC50: Enterococcus faecalis, ATCC2942, means of triplicate assays
Method: as §1, §2

S. aureus (ATCC 29213) = assay: as above; type: cell-based, Staphylococcus aureus; settings: Staphylococcus aureus, ATCC29213, means of triplicate assays
Method: as §1, §2

[2] = test system: S. epidermidis (ATCC 12228); assay: as above; type: cell-based, Staphylococcus epidermidis; settings: Staphylococcus epidermidis, ATCC12228, means of triplicate assays; read-out: MIC50 S. epidermis
Method: as §1, §2

C. albicans (ATCC 24433) = assay: Anticandidal activity, MIC50 by resazurin fluorometric measurement; type: cell-based, Candida albicans; settings: Candida albicans, ATCC24433, means of triplicate assays
Method: (§3) Obtained compounds (2a–2j) were evaluated for anticandidal activity against Candida albicans (C. albicans) (ATCC 24433), Candida krusei (C. krusei) (ATCC 6258), and Candida parapsilopsis (C. parapsilopsis) (ATCC 22019). MIC50 values were determined via fluorometric measurements, using resazurin solution.[13] Voriconazole and fluconazole were used as a standard drug in the anticandidal activity test. […] In general, it is seen that the 2-methoxyethyl substituent increases the anticandidal activity.
as §2

C. krusei (ATCC 6258) = assay: as above; type: cell-based, Candida krusei; settings: Pichia kudriavzevii, ATCC6258, means of triplicate assays
Method: as §3, §2

[3] = test system: C. parapsilopsis (ATCC 22019); assay: as above; type: cell-based, Candida parapsilopsis; settings: Candida, ATCC22019; means of triplicate assays
Method: as §3, §2

A549 cell line = assay: MTT cytotoxicity test; type: cell-based; settings: Homo sapiens, A549, 24 h, MTT, 24-h treatment, means of quartet assays ± SEM
Method: (§4) The MTT test was performed using 3 different cell lines for calculated IC50 values of obtained compounds. […] For this purpose, the cytotoxic effects of the compounds against the healthy mouse fibroblast cell (NIH3T3) were investigated.
(§5) The 3-(4,5-dimethylthiazol-2-yl)-2,5-diphenyltetrazolium salt reduction method, or MTT assay, is used to measure the metabolic activity of live cells. […] Doxorubicin is used as a therapeutic drug. MTT assays were carried out as previously explained.[19]

HepG2 cell line = assay: MTT cytotoxicity test; type: cell-based; settings: Homo sapiens, 24-h treatment, means of quartet assays ± SEM
Method: as §4, §5

[4] = test system: healthy mouse fibroblast cell (NIH3T3); assay: MTT cytotoxicity test on healthy cells; type: cell-based; settings: 24-h treatment, means of quartet assays ± SEM
Method: as §4, §5

Structure (SMILES) | MIC50 (B. subtilis (ATCC 6051)) | MIC50 (E. coli (ATCC 25922)) | MIC50 [1] | MIC50 (E. faecalis (ATCC 2942)) | MIC50 (S. aureus (ATCC 29213)) | MIC50 [2] | MIC50 (C. albicans (ATCC 24433)) | MIC50 (C. krusei (ATCC 6258)) | MIC50 [3] | melting point | MIC50 E. faecalis (E. faecalis (ATCC 2942); means of triplicate assays) | IC50 (A549 cell line) | IC50 (HepG2 cell line) | IC50 [4]
CCN1CCN(c2ccc(C(=O)C=Cc3ccc4ccccc4c3)cc2)CC1 [2g, 1-(4-(4-Ethylpiperazin-1-yl)phenyl)-3-(naphthalen-2-yl)prop-2-en-1-one] | > 100 mg/L | > 100 mg/L | > 100 mg/L | 31.3 mg/L (≈ 84.5 µM) | > 100 mg/L | 62.5 mg/L (≈ 169 µM) | 31.3 mg/L (≈ 84.5 µM) | > 100 mg/L | > 100 mg/L | 196.5 to 198 °C |  | 39.1 ± 1.24 µM | 35.6 ± 0.98 µM | 52.4 ± 2.57 µM
CC(C)N1CCN(c2ccc(C(=O)C=Cc3ccc4ccccc4c3)cc2)CC1 [2h, 1-(4-(4-Isopropylpiperazin-1-yl)phenyl)-3-(naphthalen-2-yl)prop-2-en-1-one] | > 100 mg/L | > 100 mg/L | > 100 mg/L | 31.3 mg/L (≈ 81.4 µM) | > 100 mg/L | 62.5 mg/L (≈ 163 µM) | 31.3 mg/L (≈ 81.4 µM) | > 100 mg/L | > 100 mg/L | 213.3 to 214.9 °C |  | 41.3 ± 1.5 µM | 46.3 ± 1.25 µM | 66.5 ± 0.98 µM

Now from value to compound, other results behind:

MIC50 (B. subtilis (ATCC 6051)) | MIC50 (E. coli (ATCC 25922)) | MIC50 [1] | MIC50 (E. faecalis (ATCC 2942)) | MIC50 (S. aureus (ATCC 29213)) | MIC50 [2] | MIC50 (C. albicans (ATCC 24433)) | MIC50 (C. krusei (ATCC 6258)) | MIC50 [3] | melting point | MIC50 E. faecalis (E. faecalis (ATCC 2942); means of triplicate assays) | Structure (SMILES) | IC50 (A549 cell line) | IC50 (HepG2 cell line) | IC50 [4]
> 100 mg/L | > 100 mg/L | 62.5 mg/L (≈ 156 µM) | 31.3 mg/L (≈ 78.1 µM) | 62.5 mg/L (≈ 156 µM) | 31.3 mg/L (≈ 78.1 µM) | 15.6 mg/L (≈ 38.9 µM) | 62.5 mg/L (≈ 156 µM) | > 100 mg/L | 136.2 to 137.8 °C |  | COCCN1CCN(c2ccc(C(=O)C=Cc3cccc4ccccc34)cc2)CC1 [2e, 1-(4-(4-(2-Methoxyethyl)piperazin-1-yl)phenyl)-3-(naphthalen-1-yl)prop-2-en-1-one] | 20.6 ± 0.52 µM | 45.5 ± 2.5 µM | 19.8 ± 0.81 µM
> 100 mg/L | > 100 mg/L | 62.5 mg/L (≈ 163 µM) | 31.3 mg/L (≈ 81.4 µM) | 62.5 mg/L (≈ 163 µM) | 31.3 mg/L (≈ 81.4 µM) | 15.6 mg/L (≈ 40.6 µM) | 62.5 mg/L (≈ 163 µM) | > 100 mg/L | 146.8 to 147.5 °C |  | CC(C)N1CCN(c2ccc(C(=O)C=Cc3cccc4ccccc34)cc2)CC1 [2c, 1-(4-(4-Isopropylpiperazin-1-yl)phenyl)-3-(naphthalen-1-yl)prop-2-en-1-one] | 34.3 ± 5.56 µM | 96.1 ± 5.46 µM | > 100 µM
> 100 mg/L | > 100 mg/L | > 100 mg/L | 31.3 mg/L (≈ 81.8 µM) | > 100 mg/L | 31.3 mg/L (≈ 81.8 µM) | 31.3 mg/L (≈ 81.8 µM) | > 100 mg/L | > 100 mg/L | 186.9 to 188.8 °C |  | C=CCN1CCN(c2ccc(C(=O)C=Cc3ccc4ccccc4c3)cc2)CC1 [2i, 1-(4-(4-Allylpiperazin-1-yl)phenyl)-3-(naphthalen-2-yl)prop-2-en-1-one] | 21.4 ± 2.56 µM | 97.1 ± 4.94 µM | > 100 µM
> 100 mg/L | > 100 mg/L | 62.5 mg/L (≈ 163 µM) | 15.6 mg/L (≈ 40.8 µM) | > 100 mg/L | 31.3 mg/L (≈ 81.8 µM) | 31.3 mg/L (≈ 81.8 µM) | 62.5 mg/L (≈ 163 µM) | > 100 mg/L | 120.2 to 121.9 °C | 15.7 mg/L (≈ 41 µM) | C=CCN1CCN(c2ccc(C(=O)C=Cc3cccc4ccccc34)cc2)CC1 [2d, 1-(4-(4-Allylpiperazin-1-yl)phenyl)-3-(naphthalen-1-yl)prop-2-en-1-one] | 71.1 ± 3.08 µM | 45.1 ± 8.12 µM | 19.8 ± 1.31 µM
